In the supplement of paper PMC4862054:

Assays:
Test in all cases: normalised response (% of control), CellTox Green; higher = less cell death (100 = DMSO, 0 = benzethonium chloride kill control)
Conditions in all cases: incubation time: 72 h
MFM-223 = tested on: MFM-223
Outline: (§1)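 Breast cancer cell lines were exposed for 72 h in 384-well plates to compound at 5 concentrations, 10-fold apart, covering a 10,000-fold range fixed for each compound. Plates were read for CellTox Green fluorescence and CellTiter-Glo luminescence and normalised to 0.1 % DMSO (100) and a positive kill control (0). Each value is the normalised signal at one concentration of the series.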

HCC1143 = tested on: HCC1143
Outline: as §1

MDA-MB-436 = tested on: MDA-MB-436
Outline: as §1

MDA-MB-468 = tested on: MDA-MB-468
Outline: as §1

CAL-148 = tested on: CAL-148
Outline: as §1

CAL-51 = tested on: CAL-51
Outline: as §1

CAL-85-1 = tested on: CAL-85-1
Outline: as §1

HDQ-P1 = tested on: HDQ-P1
Outline: as §1

Hs578T = tested on: Hs578T
Outline: as §1

HCC1937 = tested on: HCC1937
Outline: as §1

BT-474 = tested on: BT-474
Outline: as §1

BT-549 = tested on: BT-549
Outline: as §1

MDA-MB-231 = tested on: MDA-MB-231
Outline: as §1

MCF-10A = tested on: MCF-10A
Outline: as §1

HCC1599 = tested on: HCC1599
Outline: as §1

DU-4475 = tested on: DU-4475
Outline: as §1

MDA-MB-453 = tested on: MDA-MB-453
Outline: as §1

CAL-120 = tested on: CAL-120
Outline: as §1

Compound | normalised response (MFM-223) | normalised response (HCC1143) | normalised response (MDA-MB-436) | normalised response (MDA-MB-468) | normalised response (CAL-148) | normalised response (CAL-51) | normalised response (CAL-85-1) | normalised response (HDQ-P1) | normalised response (Hs578T) | normalised response (HCC1937) | normalised response (BT-474) | normalised response (BT-549) | normalised response (MDA-MB-231) | normalised response (MCF-10A) | normalised response (HCC1599) | normalised response (DU-4475) | normalised response (MDA-MB-453) | normalised response (CAL-120)
O=C1CN2Cc3c(ccc(Cl)c3Cl)N=C2N1 [Anagrelide] (10000 nM) | 69.6% | 85.1% | 94.9% | 67% | 60.6% | 54.9% | 108% | 78.9% | 100% | 106% | 101% | 89.6% | 94.7% | 53.2% | 99% | 96.3% | 100% | 98.9%
Oc1ncnc2[nH]ncc12 [Allopurinol] (1000 nM) | 103% |  | 107% | 80.5% | 106% | 118% | 99% | 106% | 101% | 89.9% | 100% | 103% |  | 94.7% | 97% | 96.8% | 63% | 95%
Cn1cnc2c(F)c(Nc3ccc(Br)cc3Cl)c(C(=O)NOCCO)cc21 [Selumetinib] (1000 nM) | 93.2% | 70.1% | 80.4% | 108% | 99.2% | 103% | 77.5% | 77.2% | 100% | 88.9% | 96.9% | 116% | 43.8% | 90.4% | 89.4% | 60.8% | 104% | 81.4%
CC[C@@H]1C(=O)OC[C@@H]1Cc1cncn1C [Pilocarpine] (4000 nM) | 69.2% | 72.1% | 81.4% | 66.5% | 73.7% | 104% | 95.5% |  | 70.9% |  | 96% | 112% | 97.8% | 101% | 92.5% | 95.3% | 101% | 99.3%
Cc1sc2c(c1C)C(c1ccc(Cl)cc1)=N[C@@H](CC(=O)OC(C)(C)C)c1nnc(C)n1-2 [(+)JQ1] (1000 nM) | 98.1% | -3.05% | 66.8% | 85.6% | 67.3% | 90.6% | 64.5% | 83.5% | 98.9% | 59.3% | 94.4% | 97.4% | 131% | 108% | 95.5% | 88.2% | 104% | 87.5%
Nc1ncn([C@@H]2O[C@H](CO)[C@@H](O)[C@H]2O)c(=O)n1 [Azacitidine] (10000 nM) | 89.7% | 87.7% | 55.6% | 73.4% | 97.7% | 75.7% | 110% | 103% | 84.9% | 93.3% | 80% | 99.8% | 75.5% | 81.2% | 92% | 86.7% | 98.8% | 96.5%
COc1cc2c(cc1O)CC[C@@H]1[C@@H]2CC[C@]2(C)[C@@H](O)CC[C@@H]12 [2-methoxyestradiol] (10000 nM) | 52.5% | 106% | 81.1% | 77.4% | 78.8% | 8.99% | 51.6% | 94.4% | -39.2% | 90% | 70.9% | 85.8% | -158% | 48.3% | 89% | 97.4% | 94.9% | 78.8%
CC1(C)CNc2cc(NC(=O)c3cccnc3NCc3ccncc3)ccc21 [Motesanib] (10000 nM) | 97.2% | 94% | 109% | 123% | 102% | 101% | 94.5% | 94.1% | 86.8% | 98.6% | 98.2% | 103% | 114% | 80.4% | 108% | 101% | 101% | 96.7%
Cn1cnc2c(F)c(Nc3ccc(Br)cc3Cl)c(C(=O)NOCCO)cc21 [Selumetinib] (10000 nM) | 100% | 97% | 101% | -53.9% | 96% | 101% | 108% | 75% | 89.5% | 98.3% | 99.4% | 99.7% | 21.6% | 74.4% | 108% | 62.3% | 101% | 87.3%
O=NN(CCCl)C(=O)NCCCl [Carmustine] (1000 nM) | 66.4% | 105% | 99.5% | 86% | 98% | 115% | 102% | 99% | 106% | 112% | 97.3% | 96.9% | 105% | 92.1% | 94.9% | 96.9% | 103% | 95.8%
Nc1ncn([C@@H]2O[C@H](CO)[C@@H](O)[C@H]2O)c(=O)n1 [Azacitidine] (1000 nM) | 89.6% |  | 97.7% | 33.9% | 84.3% | 105% | 98.4% | 59.9% |  |  | 80.4% | 108% | 93.2% | 101% | 96.4% | 97% | 110% | 101%
